Assay results taken from US11345711B2, “8,9-dihydroimidazo[1,2-a]pyrimido[5,4-e]pyrimidin-5(6H)-ones” (IMPACT THERAPEUTICS (SHANGHAI), INC, priority 2016, dated 2022).
Where two headings read alike, the source gives them in different places.

Columns and labels:
Wee1 (h) = Wee1 (h) (Homo sapiens, UniProt P30291); experiment: Wee1 kinase (h) detection method, [γ-33P]-ATP filter assay; type: biochemical
LoVo cells = experiment: MTT based cell viability assay on LoVo cells; conditions: Homo sapiens, LoVo, 72 h, 3 d, read-out: IC50, growth inhibition of LoVo cells
In short: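 Inhibition of LoVo proliferation was derived as IC50 from a sigmoidal dose-response fit of cell survival. Readout was MTT (0.5 mg/mL, 4 h) with absorbance at 552/630/690 nm, after 3-day treatment at 37 °C. Eight-point series from 10 μM to 0.01 μM, DMSO control, 1% DMSO final.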

NCI-H1299 cells = experiment: MTT based cell viability assay on NCI-H1299 cells; conditions: Homo sapiens, read-out: IC50, growth inhibition of NCI-H1299 cells
In short: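 NCI-H1299 cells (1000/well, settled overnight) were exposed for 3 d at 37 °C, 5% CO2, to an eight-point series of 10 μM to 0.01 μM plus DMSO blank, as prepared in DMSO (final DMSO 1‰). MTT (0.5 mg/mL, 4 h) was read at 552/630/690 nm. IC50 came from sigmoidal dose-response fits of survival.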

Sequence of Wee1 (h) (P30291 whole entry): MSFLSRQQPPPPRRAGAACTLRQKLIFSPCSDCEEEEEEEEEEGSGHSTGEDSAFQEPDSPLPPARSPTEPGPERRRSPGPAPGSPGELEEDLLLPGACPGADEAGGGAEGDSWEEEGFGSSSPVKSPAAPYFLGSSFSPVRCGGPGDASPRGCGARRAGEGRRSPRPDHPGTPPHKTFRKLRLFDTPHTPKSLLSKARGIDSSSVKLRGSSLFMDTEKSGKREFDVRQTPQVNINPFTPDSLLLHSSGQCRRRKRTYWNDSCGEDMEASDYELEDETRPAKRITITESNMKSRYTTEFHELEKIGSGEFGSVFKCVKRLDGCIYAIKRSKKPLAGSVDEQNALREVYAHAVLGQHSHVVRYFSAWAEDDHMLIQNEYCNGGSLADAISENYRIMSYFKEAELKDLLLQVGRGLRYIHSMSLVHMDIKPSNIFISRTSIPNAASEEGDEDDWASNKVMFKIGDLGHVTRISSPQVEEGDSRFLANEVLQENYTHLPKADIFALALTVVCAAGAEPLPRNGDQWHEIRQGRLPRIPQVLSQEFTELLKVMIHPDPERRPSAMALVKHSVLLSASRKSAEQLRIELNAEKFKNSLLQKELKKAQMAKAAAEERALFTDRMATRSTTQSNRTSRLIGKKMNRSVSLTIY

CN1CCN(c2ccc(Nc3ncc4c(n3)N3CCN=C3N(c3c(F)cccc3Cl)C4=O)cc2F)CC1 [Example 44, 6-(2-Chloro-6-fluorophenyl)-2-((3-fluoro-4-(4-methylpiperazin-1-yl)phenyl)amino)-8,9-dihydroimidazo[1,2-a]pyrimido[5,4-e]pyrimidin-5(6H)-one]
Inh. (%) of Wee1 kinase enzyme activity (Wee1 (h); C 0.01 μm compound): 23% | Inh. (%) of Wee1 kinase enzyme activity (Wee1 (h); C 0.1 μm compound): 75% | Inh. (%) of Wee1 kinase enzyme activity (Wee1 (h); C 1 μm compound): 93% | IC50 (LoVo cells): 37.1 nM | IC50 (NCI-H1299 cells; NCI-H1299, NCI-H1299 cells): 597 nM

C[C@@H]1CN(c2ccc(Nc3ncc4c(n3)N3CCN=C3N(c3c(F)cccc3Cl)C4=O)cc2F)C[C@H](C)N1C [Example 45, 6-(2-Chloro-6-fluorophenyl)-2-((3-fluoro-4-((3S,5R)-3,4,5-trimethylpiperazin-1-yl)phenyl)amino)-8,9-dihydroimidazo[1,2-a]pyrimido[5,4-e]pyrimidin-5(6H)-one]
Inh. (%) of Wee1 kinase enzyme activity (Wee1 (h); C 0.01 μm compound): 28% | Inh. (%) of Wee1 kinase enzyme activity (Wee1 (h); C 0.1 μm compound): 80% | Inh. (%) of Wee1 kinase enzyme activity (Wee1 (h); C 1 μm compound): 95% | IC50 (LoVo cells): 1180 nM | IC50 (NCI-H1299 cells; NCI-H1299, NCI-H1299 cells): 616 nM

CN1CCN(c2ccc(Nc3ncc4c(n3)N3CCN=C3N(c3c(F)cccc3Cl)C4=O)cc2Cl)CC1 [Example 46, 6-(2-Chloro-6-fluorophenyl)-2-((3-chloro-4-(4-methylpiperazin-1-yl)phenyl)amino)-8,9-dihydroimidazo[1,2-a]pyrimido[5,4-e]pyrimidin-5(6H)-one]
Inh. (%) of Wee1 kinase enzyme activity (Wee1 (h); C 0.01 μm compound): 36% | Inh. (%) of Wee1 kinase enzyme activity (Wee1 (h); C 0.1 μm compound): 85% | Inh. (%) of Wee1 kinase enzyme activity (Wee1 (h); C 1 μm compound): 97% | IC50 (LoVo cells): 26.1 nM | IC50 (NCI-H1299 cells; NCI-H1299, NCI-H1299 cells): 528 nM

C[C@@H]1CN(c2ccc(Nc3ncc4c(n3)N3CCN=C3N(c3c(F)cccc3Cl)C4=O)cc2Cl)C[C@H](C)N1C [Example 47, 2-((3-Chloro-4-((3S,5R)-3,4,5-trimethylpiperazin-1-yl)phenyl)amino)-6-(2-chloro-6-fluorophenyl)-8,9-dihydroimidazo[1,2-a]pyrimido[5,4-e]pyrimidin-5(6H)-one]
Inh. (%) of Wee1 kinase enzyme activity (Wee1 (h); C 0.01 μm compound): 45% | Inh. (%) of Wee1 kinase enzyme activity (Wee1 (h); C 0.1 μm compound): 89% | Inh. (%) of Wee1 kinase enzyme activity (Wee1 (h); C 1 μm compound): 98% | IC50 (LoVo cells): 30.5 nM | IC50 (NCI-H1299 cells; NCI-H1299 cells): 330 nM

CN1CCN(c2ccc(Nc3ncc4c(n3)N3CCN=C3N(c3c(F)cccc3Cl)C4=O)cc2C(F)(F)F)CC1 [Example 48, 6-(2-Chloro-6-fluorophenyl)-2-((4-(4-methylpiperazin-1-yl)-3-(trifluoromethyl)phenyl)amino)-8,9-dihydroimidazo[1,2-a]pyrimido[5,4-e]pyrimidin-5(6H)-one]
Inh. (%) of Wee1 kinase enzyme activity (Wee1 (h); C 0.01 μm compound): 29% | Inh. (%) of Wee1 kinase enzyme activity (Wee1 (h); C 0.1 μm compound): 75% | Inh. (%) of Wee1 kinase enzyme activity (Wee1 (h); C 1 μm compound): 91% | IC50 (LoVo cells): 117 nM | IC50 (NCI-H1299 cells; NCI-H1299, NCI-H1299 cells): 1120 nM

C[C@@H]1CN(c2ccc(Nc3ncc4c(n3)N3CCN=C3N(c3c(F)cccc3Cl)C4=O)cc2C(F)(F)F)C[C@H](C)N1C [Example 49, 6-(2-Chloro-6-fluorophenyl)-2-((3-trifluoromethyl-4-((3S,5R)-3,4,5-trimethylpiperazin-1-yl)phenyl)amino)-8,9-dihydroimidazo[1,2-a]pyrimido[5,4-e]pyrimidin-5(6H)-one]
Inh. (%) of Wee1 kinase enzyme activity (Wee1 (h); C 0.01 μm compound): 43% | Inh. (%) of Wee1 kinase enzyme activity (Wee1 (h); C 0.1 μm compound): 86% | Inh. (%) of Wee1 kinase enzyme activity (Wee1 (h); C 1 μm compound): 95% | IC50 (LoVo cells): 96.9 nM | IC50 (NCI-H1299 cells; NCI-H1299 cells): 543 nM

Cc1cc(Nc2ncc3c(n2)N2CCN=C2N(c2c(F)cccc2Cl)C3=O)ccc1N1CCN(C)CC1 [Example 50, 6-(2-Chloro-6-fluorophenyl)-2-((3-methyl-4-(4-methylpiperazin-1-yl)phenyl)amino)-8,9-dihydroimidazo[1,2-a]pyrimido[5,4-e]pyrimidin-5(6H)-one]
Inh. (%) of Wee1 kinase enzyme activity (Wee1 (h); C 0.01 μm compound): 62% | Inh. (%) of Wee1 kinase enzyme activity (Wee1 (h); C 0.1 μm compound): 95% | Inh. (%) of Wee1 kinase enzyme activity (Wee1 (h); C 1 μm compound): 100% | IC50 (LoVo cells): 58.9 nM | IC50 (NCI-H1299 cells; NCI-H1299, NCI-H1299 cells): 229 nM

Cc1cc(Nc2ncc3c(n2)N2CCN=C2N(c2c(F)cccc2Cl)C3=O)ccc1N1C[C@@H](C)N(C)[C@@H](C)C1 [Example 51, 6-(2-Chloro-6-fluorophenyl)-2-((3-methyl-4-((3S,5R)-3,4,5-trimethylpiperazin-1-yl)phenyl)amino)-8,9-dihydroimidazo[1,2-a]pyrimido[5,4-e]pyrimidin-5(6H)-one]
Inh. (%) of Wee1 kinase enzyme activity (Wee1 (h); C 0.01 μm compound): 66% | Inh. (%) of Wee1 kinase enzyme activity (Wee1 (h); C 0.1 μm compound): 86% | Inh. (%) of Wee1 kinase enzyme activity (Wee1 (h); C 1 μm compound): 96% | IC50 (LoVo cells): 105 nM | IC50 (NCI-H1299 cells; NCI-H1299, NCI-H1299 cells): 165 nM

Cc1cc(Nc2ncc3c(n2)N2CCN=C2N(c2c(F)cccc2Cl)C3=O)ccc1N1CCN(C(C)C)CC1 [Example 52, 6-(2-Chloro-6-fluorophenyl)-2-((4-(4-isopropylpiperazin-1-yl)-3-methylphenyl)amino)-8,9-dihydroimidazo[1,2-a]pyrimido[5,4-e]pyrimidin-5(6H)-one]
Inh. (%) of Wee1 kinase enzyme activity (Wee1 (h); C 0.01 μm compound): 111% | Inh. (%) of Wee1 kinase enzyme activity (Wee1 (h); C 0.1 μm compound): 80% | Inh. (%) of Wee1 kinase enzyme activity (Wee1 (h); C 1 μm compound): 93% | IC50 (LoVo cells): 87.4 nM | IC50 (NCI-H1299 cells; NCI-H1299, NCI-H1299 cells): 127 nM

Cc1cc(Nc2ncc3c(n2)N2CCN=C2N(c2c(F)cccc2Cl)C3=O)ccc1N1C[C@@H](C)N(C(C)C)[C@@H](C)C1 [Example 53, 6-(2-Chloro-6-fluorophenyl)-2-((4-((3S,5R)-4-isopropyl-3,5-dimethylpiperazin-1-yl)-3-methylphenyl)amino)-8,9-dihydroimidazo[1,2-a]pyrimido[5,4-e]pyrimidin-5(6H)-one]
Inh. (%) of Wee1 kinase enzyme activity (Wee1 (h); C 0.01 μm compound): 13% | Inh. (%) of Wee1 kinase enzyme activity (Wee1 (h); C 0.1 μm compound): 82% | Inh. (%) of Wee1 kinase enzyme activity (Wee1 (h); C 1 μm compound): 91% | IC50 (LoVo cells): 85.5 nM | IC50 (NCI-H1299 cells; NCI-H1299, NCI-H1299 cells): 145 nM

COc1cc(Nc2ncc3c(n2)N2CCN=C2N(c2c(F)cccc2Cl)C3=O)ccc1N1CCN(C)CC1 [Example 54, 6-(2-Chloro-6-fluorophenyl)-2-((3-methoxy-4-(4-methylpiperazin-1-yl)phenyl)amino)-8,9-dihydroimidazo[1,2-a]pyrimido[5,4-e]pyrimidin-5(6H)-one]
Inh. (%) of Wee1 kinase enzyme activity (Wee1 (h); C 1 μm compound): 81% | IC50 (LoVo cells): 155 nM | IC50 (NCI-H1299 cells; NCI-H1299 cells): 1530 nM

CN1CCN(c2ccc(Nc3ncc4c(n3)N3CCN=C3N(c3c(F)cccc3Cl)C4=O)cc2[N+](=O)[O-])CC1 [Example 55, 6-(2-Chloro-6-fluorophenyl)-2-((4-(4-methylpiperazin-1-yl)-3-nitrophenyl)amino)-8,9-dihydroimidazo[1,2-a]pyrimido[5,4-e]pyrimidin-5(6H)-one]
Inh. (%) of Wee1 kinase enzyme activity (Wee1 (h); C 1 μm compound): 12% | IC50 (LoVo cells): > 100000 nM | IC50 (NCI-H1299 cells; NCI-H1299 cells): > 10000 nM

Cc1cc(Nc2ncc3c(n2)N2CCN=C2N(c2c(F)cccc2Cl)C3=O)cc(C)c1N1CCN(C)CC1 [Example 56, 6-(2-Chloro-6-fluorophenyl)-2-((3,5-dimethyl-4-(4-methylpiperazin-1-yl)phenyl)amino)-8,9-dihydroimidazo[1,2-a]pyrimido[5,4-e]pyrimidin-5(6H)-one]
Inh. (%) of Wee1 kinase enzyme activity (Wee1 (h); C 0.01 μm compound): 14% | Inh. (%) of Wee1 kinase enzyme activity (Wee1 (h); C 0.1 μm compound): 80% | Inh. (%) of Wee1 kinase enzyme activity (Wee1 (h); C 1 μm compound): 90% | IC50 (LoVo cells): 47 nM | IC50 (NCI-H1299 cells; NCI-H1299, NCI-H1299 cells): 318 nM

CN1CCN(c2ccc(Nc3ncc4c(n3)N3CCN=C3N(c3c(F)cccc3Cl)C4=O)cn2)CC1 [Example 57, 6-(2-Chloro-6-fluorophenyl)-2-((6-(4-methylpiperazin-1-yl)pyridin-3-yl)amino)-8,9-dihydroimidazo[1,2-a]pyrimido[5,4-e]pyrimidin-5(6H)-one]
Inh. (%) of Wee1 kinase enzyme activity (Wee1 (h); C 0.01 μm compound): 36% | Inh. (%) of Wee1 kinase enzyme activity (Wee1 (h); C 0.1 μm compound): 80% | Inh. (%) of Wee1 kinase enzyme activity (Wee1 (h); C 1 μm compound): 89% | IC50 (LoVo cells): 13600 nM | IC50 (NCI-H1299 cells; NCI-H1299 cells): > 10000 nM

CC(C)N1Cc2cc(Nc3ncc4c(n3)N3CCN=C3N(c3c(F)cccc3Cl)C4=O)ccc2C2(CC2)C1 [Example 58, 6-(2-Chloro-6-fluorophenyl)-2-((2′-isopropyl-2′,3′-dihydro-1′H-spiro[cyclopropane-1,4′-isoquinolin]-7′-yl)amino)-8,9-dihydroimidazo[1,2-a]pyrimido[5,4-e]pyrimidin-5(6H)-one]
Inh. (%) of Wee1 kinase enzyme activity (Wee1 (h); C 0.01 μm compound): 46% | Inh. (%) of Wee1 kinase enzyme activity (Wee1 (h); C 0.1 μm compound): 92% | Inh. (%) of Wee1 kinase enzyme activity (Wee1 (h); C 1 μm compound): 100% | IC50 (LoVo cells): 90 nM | IC50 (NCI-H1299 cells; NCI-H1299 cells): 426 nM

CN1CCn2nc(Nc3ncc4c(n3)N3CCN=C3N(c3c(F)cccc3Cl)C4=O)cc2C1 [Example 59, 6-(2-Chloro-6-fluorophenyl)-2-((5-methyl-4,5,6,7-tetrahydropyrazolo[1,5-a]pyrazin-2-yl)amino)-8,9-dihydroimidazo[1,2-a]pyrimido[5,4-e]pyrimidin-5(6H)-one]
Inh. (%) of Wee1 kinase enzyme activity (Wee1 (h); C 1 μm compound): 49% | IC50 (LoVo cells): > 100000 nM | IC50 (NCI-H1299 cells; NCI-H1299 cells): > 10000 nM

Cc1cc(Nc2ncc3c(n2)N2CCN=C2N(c2c(F)cccc2F)C3=O)ccc1N1CCN(C)CC1 [Example 60, 6-(2,6-Difluorophenyl)-2-((3-methyl-4-(4-methylpiperazin-1-yl)phenyl)amino)-8,9-dihydroimidazo[1,2-a]pyrimido[5,4-e]pyrimidin-5(6H)-one]
Inh. (%) of Wee1 kinase enzyme activity (Wee1 (h); C 0.01 μm compound): 15% | Inh. (%) of Wee1 kinase enzyme activity (Wee1 (h); C 0.1 μm compound): 71% | Inh. (%) of Wee1 kinase enzyme activity (Wee1 (h); C 1 μm compound): 91% | IC50 (LoVo cells): 158 nM | IC50 (NCI-H1299 cells; NCI-H1299 cells): 992 nM

Cc1cc(Nc2ncc3c(n2)N2CCN=C2N(c2c(F)cccc2C(F)(F)F)C3=O)ccc1N1CCN(C)CC1 [Example 61, 6-(2-Fluoro-6-(trifluoromethyl)phenyl)-2-((3-methyl-4-(4-methylpiperazin-1-yl)phenyl)amino)-8,9-dihydroimidazo[1,2-a]pyrimido[5,4-e]pyrimidin-5(6H)-one]
Inh. (%) of Wee1 kinase enzyme activity (Wee1 (h); C 1 μm compound): 82% | IC50 (LoVo cells): 757 nM | IC50 (NCI-H1299 cells; NCI-H1299 cells): 1230 nM
